# Experimental data reported in PubChem BioAssay AID1963981 (Molecular Pharmacology Branch, DTP, NCI, 2024).
# pIC50: −log10 of the molar value.
# Test system: 354836-022-R-J1-PDC multicell spheroid viability
# Experiment: Anticancer human tumor 354836-022-R-J1-PDC patient-derived head and neck squamous cell carcinoma cell line growth inhibition [PI3K]
# Settings: for pIC50: curve of first compound; for viability, T/C: stronger effect = lower value
# In short: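 Stroma-containing spheroids: tumor line, pooled-donor HUVEC, hMSC. Treatments: targeted agents with PI3K inhibitors. Dosing: clinically relevant, half-log spacing, 10 microM ceiling without known Cmax. Read-out: cell viability.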
# [1] = second compound 0.00316 µM, first compound 0.0316 µM
# [2] = second compound 0.00316 µM, first compound 0.1 µM
# [3] = second compound 0.00316 µM, first compound 0.316 µM
# [4] = second compound 0.00316 µM, first compound 1 µM
# [5] = second compound 0.00316 µM, first compound 3.16 µM
# [6] = second compound 0.00316 µM, first compound 10 µM
# [7] = second compound 0.01 µM, first compound 0.0316 µM
# [8] = second compound 0.01 µM, first compound 0.1 µM
# [9] = second compound 0.01 µM, first compound 0.316 µM
# [10] = second compound 0.01 µM, first compound 1 µM
# [11] = second compound 0.01 µM, first compound 3.16 µM
# [12] = second compound 0.01 µM, first compound 10 µM
# [13] = second compound 0.0316 µM, first compound 0.0316 µM
# [14] = second compound 0.0316 µM, first compound 0.1 µM
# [15] = second compound 0.0316 µM, first compound 0.316 µM
# [16] = second compound 0.0316 µM, first compound 1 µM
# [17] = second compound 0.0316 µM, first compound 3.16 µM
# [18] = second compound 0.0316 µM, first compound 10 µM
# [19] = second compound 0.1 µM, first compound 0.0316 µM
# [20] = second compound 0.1 µM, first compound 0.1 µM
# [21] = second compound 0.1 µM, first compound 0.316 µM
# [22] = second compound 0.1 µM, first compound 1 µM
# [23] = second compound 0.1 µM, first compound 3.16 µM
# [24] = second compound 0.1 µM, first compound 10 µM
# [25] = second compound 0.316 µM, first compound 0.0316 µM
# [26] = second compound 0.316 µM, first compound 0.1 µM
# [27] = second compound 0.316 µM, first compound 0.316 µM
# [28] = second compound 0.316 µM, first compound 1 µM
# [29] = second compound 0.316 µM, first compound 3.16 µM
# [30] = second compound 0.316 µM, first compound 10 µM
# [31] = second compound 1 µM, first compound 0.0316 µM
# [32] = second compound 1 µM, first compound 0.1 µM
# [33] = second compound 1 µM, first compound 0.316 µM
# [34] = second compound 1 µM, first compound 1 µM
# [35] = second compound 1 µM, first compound 3.16 µM
# [36] = second compound 1 µM, first compound 10 µM
# 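Also: spheroids exposed to agents for seven days before the viability read.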
smiles,measurement,setting,value
Cn1nccc1Nc1nccc(-c2ccn(C(CO)c3ccc(Cl)c(F)c3)c(=O)c2)n1 (centres undefined) + CC(Nc1ccc2c(c1)OCCn1cc(N3C(=O)OCC3C(F)F)nc1-2)C(N)=O,pIC50,second compound 0.00316 µM,< 5.00
same,pIC50,second compound 0.01 µM,< 5.00
same,pIC50,second compound 0.0316 µM,< 5.00
same,pIC50,second compound 0.1 µM,< 5.00
same,pIC50,second compound 0.316 µM,< 5.00
same,pIC50,second compound 1 µM,< 5.00
same,"viability, T/C",[1],91.2%
same,"viability, T/C",[2],86.8%
same,"viability, T/C",[3],112%
same,"viability, T/C",[4],92.6%
same,"viability, T/C",[5],93.5%
same,"viability, T/C",[6],88.1%
same,"viability, T/C",[7],105%
same,"viability, T/C",[8],92.5%
same,"viability, T/C",[9],101%
same,"viability, T/C",[10],95.1%
same,"viability, T/C",[11],101%
same,"viability, T/C",[12],88.5%
same,"viability, T/C",[13],103%
same,"viability, T/C",[14],92.4%
same,"viability, T/C",[15],88.7%
same,"viability, T/C",[16],88.6%
same,"viability, T/C",[17],127%
same,"viability, T/C",[18],98.2%
same,"viability, T/C",[19],74.2%
same,"viability, T/C",[20],100%
same,"viability, T/C",[21],94.6%
same,"viability, T/C",[22],88.7%
same,"viability, T/C",[23],100%
same,"viability, T/C",[24],98.4%
same,"viability, T/C",[25],59.9%
same,"viability, T/C",[26],73.3%
same,"viability, T/C",[27],75.2%
same,"viability, T/C",[28],72%
same,"viability, T/C",[29],71.5%
same,"viability, T/C",[30],71.8%
same,"viability, T/C",[31],58.8%
same,"viability, T/C",[32],50.1%
same,"viability, T/C",[33],55.4%
same,"viability, T/C",[34],62.4%
same,"viability, T/C",[35],61.4%
same,"viability, T/C",[36],41.4%
C[C@@H](NC(=O)c1ncnc(N)c1Cl)c1ncc(C(=O)Nc2cc(C(F)(F)F)c(Cl)cn2)s1 + COc1c(OCCCN2CCOCC2)ccc2c3n(c(=NC(=O)c4cnc(N)nc4)nc12)CCN3,pIC50,second compound 0.00316 µM,< 5.00
same,pIC50,second compound 0.01 µM,< 5.00
same,pIC50,second compound 0.0316 µM,< 5.00
same,pIC50,second compound 0.1 µM,< 5.00
same,pIC50,second compound 0.316 µM,> 7.50
same,pIC50,second compound 1 µM,> 7.50
same,"viability, T/C",[1],91.8%
same,"viability, T/C",[2],112%
same,"viability, T/C",[3],96.9%
same,"viability, T/C",[4],109%
same,"viability, T/C",[5],98.5%
same,"viability, T/C",[6],97%
same,"viability, T/C",[7],105%
same,"viability, T/C",[8],101%
same,"viability, T/C",[9],96.5%
same,"viability, T/C",[10],119%
same,"viability, T/C",[11],102%
same,"viability, T/C",[12],78.1%
same,"viability, T/C",[13],76%
same,"viability, T/C",[14],81.8%
same,"viability, T/C",[15],86.5%
same,"viability, T/C",[16],86.9%
same,"viability, T/C",[17],84.2%
same,"viability, T/C",[18],71.5%
same,"viability, T/C",[19],58.2%
same,"viability, T/C",[20],43.7%
same,"viability, T/C",[21],55.6%
same,"viability, T/C",[22],55%
same,"viability, T/C",[23],55.1%
same,"viability, T/C",[24],47.9%
same,"viability, T/C",[25],11.2%
same,"viability, T/C",[26],14.4%
same,"viability, T/C",[27],13.4%
same,"viability, T/C",[28],18%
same,"viability, T/C",[29],24.4%
same,"viability, T/C",[30],9.94%
same,"viability, T/C",[31],2.2%
same,"viability, T/C",[32],1.73%
same,"viability, T/C",[33],1.92%
same,"viability, T/C",[34],1.84%
same,"viability, T/C",[35],2.33%
same,"viability, T/C",[36],1.65%
